Each molecule was assayed against T1, human M1 muscarinic acetylcholine receptors (Homo sapiens, UniProt P11229) (assay: M1 FLIPR assay (PAM, intracellular calcium)). Conditions: potentiation of EC10-EC30 acetylcholine, values marked a: geometric mean of ≧7 determinations, read-out: M1 PAM Inflection Point (μM) Geometric mean of 2-6 determinations (unless otherwise indicated).
T1 sequence (P11229 1-460): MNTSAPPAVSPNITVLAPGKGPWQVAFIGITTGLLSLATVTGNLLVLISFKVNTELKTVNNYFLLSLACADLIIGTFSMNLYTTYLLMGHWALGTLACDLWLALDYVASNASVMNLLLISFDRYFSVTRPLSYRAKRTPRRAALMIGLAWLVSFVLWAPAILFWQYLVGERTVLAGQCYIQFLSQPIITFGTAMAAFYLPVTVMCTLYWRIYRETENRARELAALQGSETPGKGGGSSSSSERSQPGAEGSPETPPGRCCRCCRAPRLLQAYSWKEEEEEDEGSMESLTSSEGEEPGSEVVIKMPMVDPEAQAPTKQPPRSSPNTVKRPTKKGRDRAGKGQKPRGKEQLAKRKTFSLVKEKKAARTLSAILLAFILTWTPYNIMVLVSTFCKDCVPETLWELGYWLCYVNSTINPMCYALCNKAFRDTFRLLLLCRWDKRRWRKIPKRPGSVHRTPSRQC
Assay type: cell-based
Method: This assay was designed to select and characterize compounds that affect the activity of human M1 muscarinic acetylcholine receptors (Similar M1 PAM FLIPR assays can be found, for example, at U.S. Pat. No. 8,664,234). Human M1 receptors were stably expressed in Chinese hamster ovary (CHO) cells (HD Bioscience). The effect of test compounds on intracellular calcium was measured on an FLIPR Tetra (Molecular Devices) using the Fluo-8, AM calcium dye (Molecular Probes) with a red dye quenching agent (Sigma).
CHO cells expressing hM1 cells had been previously cultured and frozen in assay ready vials. Cell vials were thawed, then plated at a density of 10,000 cells per well in a 384 well black wall, clear bottom plate (Greiner #781090) and incubated overnight at 37 degrees C. with 5% CO2. Cells were grown and plated in F12 nutrient media (Gibco BRL #21700-075) supplemented with 10% FBS (Hyclone #CH30160.03) and Pen/Strep (Gibco #15070-063).
After overnight incubation, cell plates were removed from the incubator and the growth media was discarded and replaced with loading solution containing the following: 2 μM Fluo-8-AM (Molecular Probes #F14242), 2 mM Probenecid (Sigma #P8761), lx Acid Red 1 (Sigma #210633), in HBSS buffer containing (grams/L): 0.1 CaCl2, 0.1 MgCl2*6H2O, 0.049 MgSO4, 0.4 KCl, 0.06 KH2PO4, 8.06 NaCl, 0.12 Na2HPO4*12H2O, 1.1 D-glucose*H2O, 0.35 NaHCO3, 4.766 HEPES, pH 7.4. The plate was incubated in the loading solution at 37 degrees C. in the dark for 1 hour.
Test compounds were initially prepared as 100% DMSO stock solutions, then transferred and serially diluted in 384-well compound plates (Greiner #784201). Each compound was tested at 10 concentrations in duplicate per experiment. Positive and negative controls for positive allosteric modulator evaluation were 30 μM acetylcholine (Ach) and an EC10-EC30 concentration of acetylcholine, approximately 2 nM but could be adjusted for each experiment to maintain the EC10-EC30 range.
After the 1-hour dye loading incubation, test compounds were added to the cell plate containing Fluo-8. Approximately 10 minutes after compound addition, an EC10-EC30 concentration of acetylcholine was added to each well and the fluorescence measured to determine the PAM potentiation of the compound.
Data was exported from the FLIPR Tetra as maximum fluorescence/minimum fluorescence for each well. The percent effect for each compound well was determined using the mean values for the positive and negative controls on each plate for each read. Percent effect was 100*(compound negative control)/(positive control negative control). Dose response curves were fitted to the compound percent effect data using a 4-parameter logistic fit model to determine PAM (positive allosteric modulator) Inflection Point values. Compounds with inverted U dose response curves had the concentrations greater than the concentration giving the peak response excluded from the fit. Data was reported as Inflection Point. The compounds of Examples 1-72 had activity according to this assay, generally with an Inflection Point (IP) of 10 μM or less (using Inflection Point as a measure of activity). Such a result is indicative of the intrinsic activity of the compounds of the invention as M1 allosteric modulators.

First: CO[C@H]1CCCC[C@@H]1NC(=O)c1cc(Cc2ccc(-n3cccn3)cc2)c(C)cn1 [Example 22, N-[(1S,2S)-2-methoxycyclohexyl]-5-methyl-4-[4-(1H-pyrazol-1-yl)benzyl]pyridine-2-carboxamide]
Second: Cc1cnc(C(=O)N[C@H]2CC[C@@H](O)CC2)cc1Cc1ccc(-n2cccn2)cc1 [Example 29, N-(cis-4-hydroxycyclohexyl)-5-methyl-4-[4-(1H-pyrazol-1-yl)benzyl]pyridine-2-carboxamide]
The EC50 of the first is higher: greater than 5.99 µM for the first, 3.82 µM for the second. The second is the more potent here.

Compared with `Cc1nc(-c2ccc(Cc3cc(C(=O)N[C@H]4CCCC[C@@H]4O)ncc3C)cc2)co1` [Example 23, N-[(1S,2S)-2-hydroxycyclohexyl]-5-methyl-4-[4-(2-methyl-1,3-oxazol-4-yl)benzyl]pyridine-2-carboxamide], `COc1ccc(Cc2cc(C(=O)N[C@H]3CCCC[C@@H]3O)ncc2C)cc1` [Example 50, N-[(1S,2S)-2-hydroxycyclohexyl]-4-(4-methoxybenzyl)-5-methylpyridine-2-carboxamide] is 9.6-fold higher in EC50: 0.363 µM for the first, 3.48 µM for the second. The first is the more potent here.

Compared with `Cc1cnc(NC(=O)c2cc(Cc3ccc(-n4cccn4)cc3)c(C)cn2)nc1` [Example 24, 5-methyl-N-(5-methylpyrimidin-2-yl)-4-[4-(1H-pyrazol-1-yl)benzyl]pyridine-2-carboxamide], `Cc1noc(CNC(=O)c2cc(Cc3ccc(-n4cccn4)cc3)c(C)cn2)n1` [Example 31, 5-methyl-N-[(3-methyl-1,2,4-oxadiazol-5-yl)methyl]-4-[4-(1H-pyrazol-1-yl)benzyl]pyridine-2-carboxamide] is 2-fold higher in EC50: 4.39 µM for the first, 8.63 µM for the second.

First: COc1ccc(Cc2cc(C(=O)N[C@H]3CCCC[C@@H]3O)nc(C)c2Cl)cc1 [Example 25, 5-chloro-N-[(1S,2S)-2-hydroxycyclohexyl]-4-(4-methoxybenzyl)-6-methylpyridine-2-carboxamide]
Second: Cc1cnc(C(=O)N[C@H]2CCCC[C@@H]2O)cc1Cc1ccc(Cl)nc1 [Example 51, 4-[(6-chloropyridin-3-yl)methyl]-N-[(1S,2S)-2-hydroxycyclohexyl]-5-methylpyridine-2-carboxamide]
The EC50 of the first is 2.5-fold lower: 1.14 µM for the first, 2.83 µM for the second. The first is the more potent here.

First: Cc1cnc(C(=O)N[C@H]2C[C@H](CO)C2)cc1Cc1ccc(-n2cccn2)cc1 [Example 26, N-[trans-3-(hydroxymethyl)cyclobutyl]-5-methyl-4-[4-(1H-pyrazol-1-yl)benzyl]pyridine-2-carboxamide]
Second: Cc1cnc(C(=O)N[C@H]2C[C@@](C)(O)C2)cc1Cc1ccc(-n2cccn2)cc1 [Example 30]
The EC50 of the first is 4.5-fold higher: 5.04 µM for the first, 1.12 µM for the second. The second is the more potent here.

Compared with `Cc1cnc(C(=O)NCC2(O)CCCC2)cc1Cc1ccc(-n2cccn2)cc1` [Example 27, N-[(1-hydroxycyclopentyl)methyl]-5-methyl-4-[4-(1H-pyrazol-1-yl)benzyl]pyridine-2-carboxamide], `Cc1cnc(C(=O)NCC2(O)CCC2)cc1Cc1ccc(-n2cccn2)cc1` [Example 44, N-[(1-hydroxycyclobutyl)methyl]-5-methyl-4-[4-(1H-pyrazol-1-yl)benzyl]pyridine-2-carboxamide] is 1.7-fold higher in EC50: 1.55 µM for the first, 2.7 µM for the second. The first is the more potent here.

`Cc1cnc(C(=O)NC2CC3(COC3)C2)cc1Cc1ccc(-n2cccn2)cc1` [Example 28, 5-methyl-N-(2-oxaspiro[3.3]hept-6-yl)-4-[4-(1H-pyrazol-1-yl)benzyl]pyridine-2-carboxamide] and `Cc1cnc(C(=O)NC2CCOCC2)cc1Cc1ccc(-n2cccn2)cc1` [Example 33, 5-methyl-4-[4-(1H-pyrazol-1-yl)benzyl]-N-(tetrahydro-2H-pyran-4-yl)pyridine-2-carboxamide] are within 1.5-fold of each other in EC50: 4.77 µM for the first, 3.44 µM for the second.

Compared with `Cc1cnc(C(=O)NCC2CCOCC2)cc1Cc1ccc(-n2cccn2)cc1` [Example 32, 5-methyl-4-[4-(1H-pyrazol-1-yl)benzyl]-N-(tetrahydro-2H-pyran-4-ylmethyl)pyridine-2-carboxamide], `Cc1cnc(C(=O)NCC2CC2)cc1Cc1ccc(-n2cccn2)cc1` [Example 40, N-(cyclopropylmethyl)-5-methyl-4-[4-(1H-pyrazol-1-yl)benzyl]pyridine-2-carboxamide] is 2.1-fold higher in EC50: 4.6 µM for the first, 9.64 µM for the second.

Compared with `Cc1cnc(C(=O)NCC2CCCO2)cc1Cc1ccc(-n2cccn2)cc1` (stereo not shown) [Example 35, 5-methyl-4-[4-(1H-pyrazol-1-yl)benzyl]-N-(tetrahydrofuran-2-ylmethyl)pyridine-2-carboxamide], `Cc1cnc(C(=O)NC[C@H]2CCCO2)cc1Cc1ccc(-n2cccn2)cc1` [Example 43, 5-methyl-4-[4-(1H-pyrazol-1-yl)benzyl]-N-[(2R)-tetrahydrofuran-2-ylmethyl]pyridine-2-carboxamide] is 3.4-fold higher in EC50: 2.73 µM for the first, 9.25 µM for the second. The first is the more potent here.

Going from `Cc1cnc(C(=O)NC[C@H](C)O)cc1Cc1ccc(-n2cccn2)cc1` [Example 36, N-[(2S)-2-hydroxypropyl]-5-methyl-4-[4-(1H-pyrazol-1-yl)benzyl]pyridine-2-carboxamide] to `Cc1cnc(C(=O)N[C@H](CO)C(C)C)cc1Cc1ccc(-n2cccn2)cc1` [Example 38, N-[(2S)-1-hydroxy-3-methylbutan-2-yl]-5-methyl-4-[4-(1H-pyrazol-1-yl)benzyl]pyridine-2-carboxamide], the EC50 falls from 6.65 µM to 3.63 µM (1.8-fold).

`Cc1cnc(C(=O)N[C@@H]2CCCCNC2=O)cc1Cc1ccc(-n2cccn2)cc1` [Example 37, 5-methyl-N-[(3R)-2-oxoazepan-3-yl]-4-[4-(1H-pyrazol-1-yl)benzyl]pyridine-2-carboxamide] and `Cc1cnc(C(=O)NC2CCC(F)(F)C2)cc1Cc1ccc(-n2cccn2)cc1` (stereo not shown) [Example 48, N-(3,3-difluorocyclopentyl)-5-methyl-4-[4-(1H-pyrazol-1-yl)benzyl]pyridine-2-carboxamide] are within 1.5-fold of each other in EC50: 3.56 µM for the first, 3.5 µM for the second.

Compared with `CC[C@@H](CO)NC(=O)c1cc(Cc2ccc(-n3cccn3)cc2)c(C)cn1` [Example 39, N-[(2S)-1-hydroxybutan-2-yl]-5-methyl-4-[4-(1H-pyrazol-1-yl)benzyl]pyridine-2-carboxamide], `Cc1cnc(C(=O)NCC(=O)N(C)C)cc1Cc1ccc(-n2cccn2)cc1` [Example 41, N-[2-(dimethylamino)-2-oxoethyl]-5-methyl-4-[4-(1H-pyrazol-1-yl)benzyl]pyridine-2-carboxamide] is 1.7-fold higher in EC50: 4.83 µM for the first, 8.03 µM for the second. The first is the more potent here.

`Cc1cnc(C(=O)NCc2ccon2)cc1Cc1ccc(-n2cccn2)cc1` [Example 42, 5-methyl-N-(1,2-oxazol-3-ylmethyl)-4-[4-(1H-pyrazol-1-yl)benzyl]pyridine-2-carboxamide] and `Cc1cnc(C(=O)NCC2CCO2)cc1Cc1ccc(-n2cccn2)cc1` (stereo not shown) [Example 45, 5-methyl-N-(oxetan-2-ylmethyl)-4-[4-(1H-pyrazol-1-yl)benzyl]pyridine-2-carboxamide] are within 1.5-fold of each other in EC50: 8.13 µM for the first, 7.21 µM for the second.

`O=C(N[C@H]1CCOC[C@@H]1O)c1cc(Cc2ccc(-n3cccn3)cc2)c(Cl)cn1` [Example 52, 5-chloro-N-[(3R,4S)-3-hydroxytetrahydro-2H-pyran-4-yl]-4-[4-(1H-pyrazol-1-yl)benzyl]pyridine-2-carboxamide] and `Cc1c[n+]([O-])c(C(=O)N[C@H]2CCOC[C@@H]2O)cc1Cc1ccc(-n2cccn2)cc1` [Example 53, N-[(3R,4S)-3-hydroxytetrahydro-2H-pyran-4-yl]-5-methyl-4-[4-(1H-pyrazol-1-yl)benzyl]pyridine-2-carboxamide 1-oxide] are within 1.5-fold of each other in EC50: 0.187 µM for the first, 0.271 µM for the second.

— patent US20160016907A1, “PYRIDINE DERIVATIVES AS MUSCARINIC M1 RECEPTOR POSITIVE ALLOSTERIC MODULATORS” (PFIZER INC., priority 2014, published 2016)
